Measured values as given in patent US6028201A, “Inhibitors of farnesyl-protein transferase” (Merck & Co., Inc., priority 1998, dated 2000).
pIC50: −log10 of the molar value. Counter-ions that a name gives are not always drawn.

Target: T1, human FPTase (Homo sapiens, UniProt P49354+P49356)
T1 construct: made in house
Assay: In vitro inhibition of human FPTase
Assay type: biochemical
Conditions: 100 nM Ras-CVIM substrate, [3H]-FPP, 30 min; read-out: IC50 against human FPTase

Compound | pIC50
CCCCCN(Cc1cncn1Cc1ccc(C#N)cc1)C(=O)N(C)c1cccc(Cl)c1 [Example 2, N-(3-chlorophenyl)-N-methyl-N'-[1-(4-cyanobenzyl)-5-imidazolylmethyl]-N'-(n-pentyl)urea hydrochloride] | > 5.00
CCCCCN(Cc1cncn1Cc1ccc(C#N)cc1)C(=O)Nc1cccc(Cl)c1 [Example 1, N-(3-chlorophenyl)-N'-[1-(4-cyanobenzyl)-5-imidazolylmethyl]-N'-(n-pentyl)urea hydrochloride] | > 5.00
